{"source": "patent US9144239B2", "about": "“Macrocyclic picolinamides as fungicides” (DOW AGROSCIENCES LLC, priority 2012, dated 2015)", "key": {"[1]": {"system": "Mycosphaerella graminicola; anamorph: Septoria tritici", "assay": "Fungicidal activity: leaf blotch of wheat (SEPTTR), wheat seedlings", "assay_type": "in vivo", "conditions": "Zymoseptoria tritici, 100 ppm, wheat", "description": "Evaluation of Fungicidal Activity: Leaf Blotch of Wheat (Mycosphaerella Graminicola; Anamorph: Septoria tritici; Bayer Code […]) Technical grades of materials were dissolved in acetone, which were then mixed with nine volumes of water containing 110 ppm Triton X-100. The fungicide solutions were applied onto wheat seedlings using an automated booth sprayer to run-off. All sprayed plants were allowed to air dry prior to further handling. Wheat plants (variety Yuma) were grown from seed in a greenhouse in 50% mineral soil/50% soil-less Metro mix until the first leaf was fully emerged, with 7-10 seedlings per pot. These plants were inoculated with an aqueous spore suspension of Septoria tritici either prior to or after fungicide treatments. After inoculation the plants were kept in 100% relative humidity (one day in a dark dew chamber followed by two to three days in a lighted dew chamber at 20° C.) to permit spores to germinate and infect the leaf. The plants were then transferred to a greenhouse set at 20° C. for disease to develop. When disease symptoms were fully expressed on the 1st leaves of untreated plants, infection levels were assessed on a scale of 0 to 100 percent disease severity. Percent disease control was calculated using the ratio of disease severity on treated plants relative to untreated plants."}, "[2]": {"system": "Puccinia triticina; synonym: Puccinia recondita f. sp. tritici", "assay": "Fungicidal activity: wheat brown rust (PUCCRT), wheat seedlings", "assay_type": "in vivo", "conditions": "100 ppm, wheat", "description": "Technical grades of materials were dissolved in acetone, which were then mixed with nine volumes of water containing 110 ppm Triton X-100. The fungicide solutions were applied onto wheat seedlings using an automated booth sprayer to run-off. All sprayed plants were allowed to air dry prior to further handling. Wheat plants (variety Yuma) were grown from seed in a greenhouse in 50% mineral soil/50% soil-less Metro mix until the first leaf was fully emerged, with 7-10 seedlings per pot. These plants were inoculated with an aqueous spore suspension of Septoria tritici either prior to or after fungicide treatments. After inoculation the plants were kept in 100% relative humidity (one day in a dark dew chamber followed by two to three days in a lighted dew chamber at 20° C.) to permit spores to germinate and infect the leaf. The plants were then transferred to a greenhouse set at 20° C. for disease to develop. When disease symptoms were fully expressed on the 1st leaves of untreated plants, infection levels were assessed on a scale of 0 to 100 percent disease severity. Percent disease control was calculated using the ratio of disease severity on treated plants relative to untreated plants. Evaluation of Fungicidal Activity: Wheat Brown Rust (Puccinia […]; Synonym: Puccinia recondita f. Sp. Tritici; Bayer Code PUCCRT) Wheat plants (variety Yuma) were grown from seed in a greenhouse in 50% mineral soil/50% soil-less Metro mix until the first leaf was fully emerged, with 7-10 seedlings per pot. These plants were inoculated with an aqueous spore suspension of Puccinia triticina either prior to or after fungicide treatments. After inoculation the plants were kept in a dark dew room at 22° C. with 100% relative humidity overnight to permit spores to germinate and infect the leaf. The plants were then transferred to a greenhouse set at 24° C. for disease to develop. Fungicide formulation, application and disease assessment followed the procedures as described in the Example A."}, "[3]": {"conditions": "24 h, 1 Day Protectant, read-out: Disease Control SEPTTR 1DP"}, "[4]": {"conditions": "24 h, 1 Day Protectant, read-out: Disease Control PUCCRT 1DP"}, "[5]": {"conditions": "72 h, 3 Day Curative, read-out: Disease Control SEPTTR 3DC"}, "[6]": {"conditions": "72 h, 3 Day Curative, read-out: Disease Control PUCCRT 3DC"}}, "note": "Where two headings read alike, the source gives them in different places.", "data": [{"smiles": "COc1ccnc(C(=O)N[C@H]2COC[C@H](Oc3cc(C)cc(C)c3)[C@@H](Oc3cc(C)cc(C)c3)[C@H](C)OC2=O)c1O", "note": "[Compound 198]", "values": [{"measurement": "pest or weed control at 100 ppm", "setting": "[1]; [3]", "result": "80 to 100", "unit": "%"}, {"measurement": "pest or weed control at 100 ppm", "setting": "[2]; [4]", "result": "0 to 80", "unit": "%"}]}, {"smiles": "COc1ccnc(C(=O)N[C@H]2COC[C@H](OCC(C)C)[C@@H](OCC(C)C)COC2=O)c1O", "note": "[Compound 8]", "values": [{"measurement": "pest or weed control at 100 ppm", "setting": "[1]; [3]", "result": "0 to 80", "unit": "%"}, {"measurement": "pest or weed control at 100 ppm", "setting": "[1]; [5]", "result": "0 to 80", "unit": "%"}, {"measurement": "pest or weed control at 100 ppm", "setting": "[2]; [4]", "result": "0 to 80", "unit": "%"}, {"measurement": "pest or weed control at 100 ppm", "setting": "[2]; [6]", "result": "80 to 100", "unit": "%"}]}, {"smiles": "COc1ccnc(C(=O)N[C@H]2COC[C@@H](OCc3ccccc3)[C@H](OCc3ccccc3)[C@H](C)OC2=O)c1O", "note": "[Compound 38]", "values": [{"measurement": "pest or weed control at 100 ppm", "setting": "[1]; [3]", "result": "0 to 80", "unit": "%"}, {"measurement": "pest or weed control at 100 ppm", "setting": "[1]; [5]", "result": "0 to 80", "unit": "%"}, {"measurement": "pest or weed control at 100 ppm", "setting": "[2]; [4]", "result": "80 to 100", "unit": "%"}, {"measurement": "pest or weed control at 100 ppm", "setting": "[2]; [6]", "result": "0 to 80", "unit": "%"}]}, {"smiles": "COc1ccnc(C(=O)N[C@H]2COC[C@H](OCc3ccccc3)[C@@H](OCc3ccccc3)[C@@H](C)OC2=O)c1OCOC(C)=O", "note": "[Compound 51]", "values": [{"measurement": "pest or weed control at 100 ppm", "setting": "[1]; [3]", "result": "0 to 80", "unit": "%"}, {"measurement": "pest or weed control at 100 ppm", "setting": "[1]; [5]", "result": "0 to 80", "unit": "%"}, {"measurement": "pest or weed control at 100 ppm", "setting": "[2]; [4]", "result": "0 to 80", "unit": "%"}, {"measurement": "pest or weed control at 100 ppm", "setting": "[2]; [6]", "result": "0 to 80", "unit": "%"}]}, {"smiles": "CCC(C)(C)O[C@H]1[C@H](C)OC(=O)[C@@H](NC(=O)c2nccc(OC)c2O)COC[C@@H]1OCC(C)C", "note": "[Compound 79]", "values": [{"measurement": "pest or weed control at 100 ppm", "setting": "[1]; [3]", "result": "80 to 100", "unit": "%"}, {"measurement": "pest or weed control at 100 ppm", "setting": "[1]; [5]", "result": "80 to 100", "unit": "%"}, {"measurement": "pest or weed control at 100 ppm", "setting": "[2]; [4]", "result": "80 to 100", "unit": "%"}, {"measurement": "pest or weed control at 100 ppm", "setting": "[2]; [6]", "result": "80 to 100", "unit": "%"}]}, {"smiles": "CCCO[C@H]1[C@H](C)OC(=O)[C@@H](NC(=O)c2nccc(OC)c2O)COC[C@@H]1Oc1ccccc1", "note": "[Compound 203]", "values": [{"measurement": "pest or weed control at 100 ppm", "setting": "[1]; [3]", "result": "80 to 100", "unit": "%"}, {"measurement": "pest or weed control at 100 ppm", "setting": "[1]; [5]", "result": "80 to 100", "unit": "%"}, {"measurement": "pest or weed control at 100 ppm", "setting": "[2]; [4]", "result": "80 to 100", "unit": "%"}, {"measurement": "pest or weed control at 100 ppm", "setting": "[2]; [6]", "result": "80 to 100", "unit": "%"}]}, {"smiles": "COc1ccnc(C(=O)N[C@@H]2COC[C@H](OCC(C)C)[C@@H](OCC(C)C)[C@@H](COCC(C)C)OC2=O)c1O", "note": "[Compound 16]", "values": [{"measurement": "pest or weed control at 100 ppm", "setting": "[1]; [3]", "result": "0 to 80", "unit": "%"}, {"measurement": "pest or weed control at 100 ppm", "setting": "[2]; [4]", "result": "0 to 80", "unit": "%"}, {"measurement": "pest or weed control at 100 ppm", "setting": "[2]; [6]", "result": "0 to 80", "unit": "%"}]}, {"smiles": "COc1ccnc(C(=O)N[C@H]2CO[C@H](C)[C@H]3OC(C)(C)O[C@@H]3[C@@H](C)OC2=O)c1O", "note": "[Compound 27]", "values": [{"measurement": "pest or weed control at 100 ppm", "setting": "[1]; [3]", "result": "0 to 80", "unit": "%"}, {"measurement": "pest or weed control at 100 ppm", "setting": "[1]; [5]", "result": "0 to 80", "unit": "%"}, {"measurement": "pest or weed control at 100 ppm", "setting": "[2]; [4]", "result": "0 to 80", "unit": "%"}, {"measurement": "pest or weed control at 100 ppm", "setting": "[2]; [6]", "result": "0 to 80", "unit": "%"}]}, {"smiles": "COc1ccc(O[C@H]2COC[C@H](NC(=O)c3nccc(OC)c3O)C(=O)O[C@@H](C)[C@@H]2OC(=O)C(C)C)cc1", "note": "[Compound 200]", "values": [{"measurement": "pest or weed control at 100 ppm", "setting": "[1]; [3]", "result": "0 to 80", "unit": "%"}]}, {"smiles": "CC[C@H]1OC(=O)[C@@H](NC(=O)c2nccc(OC)c2OCOC(C)=O)COC[C@H](OCC(C)C)[C@H]1OCC(C)C", "note": "[Compound 20]", "values": [{"measurement": "pest or weed control at 100 ppm", "setting": "[1]; [3]", "result": "0 to 80", "unit": "%"}, {"measurement": "pest or weed control at 100 ppm", "setting": "[1]; [5]", "result": "0 to 80", "unit": "%"}]}, {"smiles": "CC[C@@H]1OC(=O)[C@@H](NC(=O)c2nccc(OC)c2OCOC(C)=O)COC[C@H](OCC(C)C)[C@H]1OCC(C)C", "note": "[Compound 23]", "values": [{"measurement": "pest or weed control at 100 ppm", "setting": "[1]; [3]", "result": "80 to 100", "unit": "%"}, {"measurement": "pest or weed control at 100 ppm", "setting": "[1]; [5]", "result": "80 to 100", "unit": "%"}, {"measurement": "pest or weed control at 100 ppm", "setting": "[2]; [4]", "result": "80 to 100", "unit": "%"}, {"measurement": "pest or weed control at 100 ppm", "setting": "[2]; [6]", "result": "80 to 100", "unit": "%"}]}, {"smiles": "COc1ccnc(C(=O)N[C@H]2COC[C@H](OCC(C)C)[C@@H](Oc3ccc(C(F)(F)F)cc3)[C@H](C)OC2=O)c1O", "note": "[Compound 195]", "values": [{"measurement": "pest or weed control at 100 ppm", "setting": "[2]; [4]", "result": "80 to 100", "unit": "%"}]}, {"smiles": "COc1ccnc(C(=O)N[C@H]2COC[C@H](OCC(C)C)[C@@H](Oc3cccc(Cl)c3)[C@H](C)OC2=O)c1O", "note": "[Compound 194]", "values": [{"measurement": "pest or weed control at 100 ppm", "setting": "[2]; [4]", "result": "80 to 100", "unit": "%"}, {"measurement": "pest or weed control at 100 ppm", "setting": "[2]; [6]", "result": "80 to 100", "unit": "%"}]}, {"smiles": "CCCO[C@H]1[C@H](C)OC(=O)[C@@H](NC(=O)c2nccc(OC)c2O)COC[C@@H]1Oc1ccc(C(F)(F)F)cc1", "note": "[Compound 197]", "values": [{"measurement": "pest or weed control at 100 ppm", "setting": "[2]; [4]", "result": "80 to 100", "unit": "%"}]}, {"smiles": "CC[C@H]1OC(=O)[C@H](NC(=O)c2nccc(OC)c2O)COC[C@H](OCC(C)C)[C@H]1OCC(C)C", "note": "[Compound 22]", "values": [{"measurement": "pest or weed control at 100 ppm", "setting": "[1]; [3]", "result": "0 to 80", "unit": "%"}, {"measurement": "pest or weed control at 100 ppm", "setting": "[1]; [5]", "result": "0 to 80", "unit": "%"}]}]}
